Experimental data taken from ChEMBL document CHEMBL1201862, “PubChem BioAssay data set” (2004).
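Assay format: 96-well plates, 48-hour exposure. Abbreviation: GI50, concentration required for 50% inhibition of growth.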 Calls of active or inactive are those of the source. Cut-off read from the data, not from the text of the source: active = GI50 up to about 1.1 µM and inactive = higher.

Experiments:
Assay in all cases: DTP human tumour cell line panel, 48 h
MOLT-4 = test system: MOLT-4
SK-OV-3 = test system: SK-OV-3
HOP-62 = test system: HOP-62
PC-3 = test system: PC-3
SK-MEL-5 = test system: SK-MEL-5
OVCAR-5 = test system: OVCAR-5
SK-MEL-2 = test system: SK-MEL-2
HOP-92 = test system: HOP-92
MCF7 = test system: MCF7
UACC-62 = test system: UACC-62
OVCAR-3 = test system: OVCAR-3
HT-29 = test system: HT-29
TK-10 = test system: TK-10
NCI-H23 = test system: NCI-H23
HCT-116 = test system: HCT-116
SF-539 = test system: SF-539
A498 = test system: A498
RPMI-8226 = test system: RPMI-8226
MDA-MB-231 = test system: MDA-MB-231

Measured: GI50

CC(C)Oc1ccc2c(c1)OCC1Cc3ccccc3OC21 (stereo not given)
inactive: MOLT-4 36.2 µM | SK-OV-3 > 100 µM | HOP-62 > 100 µM | PC-3 > 100 µM | SK-MEL-5 23 µM | OVCAR-5 > 100 µM | SK-MEL-2 > 100 µM | HOP-92 > 100 µM | MCF7 46.8 µM | UACC-62 > 100 µM | OVCAR-3 > 100 µM | HT-29 41.4 µM | TK-10 51.3 µM | NCI-H23 89.9 µM | HCT-116 > 100 µM | SF-539 > 100 µM | A498 > 100 µM | RPMI-8226 52.8 µM | MDA-MB-231 > 100 µM

COc1ccc2c(c1)CCN1CCCc3ccc(OC)cc3C21 (stereo not given)
inactive: MOLT-4 37.1 µM | SK-OV-3 77.4 µM | HOP-62 67.9 µM | PC-3 28.5 µM | SK-MEL-5 39.6 µM | OVCAR-5 89.9 µM | SK-MEL-2 52.1 µM | HOP-92 63.8 µM | MCF7 31.3 µM | UACC-62 57.3 µM | OVCAR-3 92 µM | HT-29 31.7 µM | TK-10 > 100 µM | NCI-H23 68.5 µM | HCT-116 31.3 µM | SF-539 50.4 µM | A498 84.5 µM | RPMI-8226 31.6 µM | MDA-MB-231 49.8 µM

O=C1Cc2c(-c3ccccc3)cc(-c3ccc4ccccc4c3)nc2-c2ccccc2N1
inactive: MOLT-4 > 100 µM | SK-OV-3 6.64 µM | HOP-62 7.52 µM | PC-3 15.7 µM | SK-MEL-5 4.74 µM | OVCAR-5 24.7 µM | SK-MEL-2 43.9 µM | HOP-92 4.05 µM | MCF7 13.9 µM | UACC-62 10.7 µM | OVCAR-3 8.05 µM | HT-29 3.31 µM | TK-10 12.3 µM | NCI-H23 6.4 µM | HCT-116 8.45 µM | SF-539 4.7 µM | A498 12.7 µM | RPMI-8226 17.7 µM | MDA-MB-231 5.79 µM

CCCC1=C(OC)C(=O)c2c(C)cc(Cl)nc2C1=O
inactive: MOLT-4 1.55 µM | SK-OV-3 17 µM | HOP-62 15.5 µM | PC-3 9.08 µM | SK-MEL-5 4.06 µM | OVCAR-5 14.5 µM | SK-MEL-2 10.5 µM | HOP-92 5.79 µM | MCF7 2.47 µM | UACC-62 3.3 µM | OVCAR-3 2.81 µM | HT-29 4.3 µM | TK-10 19.9 µM | NCI-H23 4.11 µM | HCT-116 2.62 µM | SF-539 7.43 µM | A498 20.2 µM | RPMI-8226 2.16 µM | MDA-MB-231 5.53 µM

CC1=NNC(=O)[C@H]2[C@H]1CCC1[C@@H]2CC[C@]2(C)[C@@H](O)CC[C@@H]12 (stereo not given in full)
inactive: MOLT-4 > 100 µM | SK-OV-3 > 100 µM | HOP-62 > 100 µM | PC-3 > 100 µM | SK-MEL-5 > 100 µM | OVCAR-5 > 100 µM | SK-MEL-2 > 100 µM | HOP-92 > 100 µM | MCF7 > 100 µM | UACC-62 > 100 µM | OVCAR-3 > 100 µM | HT-29 > 100 µM | TK-10 > 100 µM | NCI-H23 > 100 µM | HCT-116 > 100 µM | SF-539 > 100 µM | A498 > 100 µM | RPMI-8226 > 100 µM | MDA-MB-231 > 100 µM
